Laboratory results published in ChEMBL document CHEMBL1201862, “PubChem BioAssay data set” (2004).
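Results reflect a 48-hour exposure of cells in 96-well plates to compound at five concentrations. GI50: concentration for 50% inhibition of growth.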 Active and inactive are the calls of the source. Cut-off read from the data, not from the text of the source: active = GI50 up to about 1.1 µM and inactive = higher.

Experiments:
Assay in all cases: NCI-60 cell line screen, 48 h
T47D = system: T47D
OVCAR-5 = system: OVCAR-5
MDA-MB-435 = system: MDA-MB-435
HCT-15 = system: HCT-15
MDA-N = system: MDA-N
U-251 = system: U-251
HCT-116 = system: HCT-116
SF-295 = system: SF-295
COLO 205 = system: COLO 205
NCI-H522 = system: NCI-H522
K562 = system: K562
SK-MEL-28 = system: SK-MEL-28
IGROV-1 = system: IGROV-1
UACC-62 = system: UACC-62
MDA-MB-231 = system: MDA-MB-231
HT-29 = system: HT-29
DU-145 = system: DU-145
A549 = system: A549
M14 = system: M14
SF-539 = system: SF-539

Compound	GI50 (T47D)	GI50 (OVCAR-5)	GI50 (MDA-MB-435)	GI50 (HCT-15) [µM]	GI50 (MDA-N)	GI50 (U-251)	GI50 (HCT-116)	GI50 (SF-295)	GI50 (COLO 205)	GI50 (NCI-H522)	GI50 (K562)	GI50 (SK-MEL-28)	GI50 (IGROV-1)	GI50 (UACC-62)	GI50 (MDA-MB-231)	GI50 (HT-29)	GI50 (DU-145)	GI50 (A549)	GI50 (M14)	GI50 (SF-539)
Cc1nc2ccc(NC3OCC(O)C(O)C3O)cc2c(=O)n1-c1ccccc1 (stereo unspecified)	> 100 µM (inactive)	> 100 µM (inactive)	> 100 µM (inactive)	> 100	> 100 µM (inactive)	> 100 µM (inactive)	> 100 µM (inactive)	> 100 µM (inactive)	> 100 µM (inactive)	> 100 µM (inactive)	> 100 µM (inactive)	> 100 µM (inactive)	> 100 µM (inactive)	> 100 µM (inactive)	> 100 µM (inactive)	> 100 µM (inactive)	> 100 µM (inactive)			
OCC1CCC(n2cnc3c(O)ncnc32)O1 (stereo unspecified)	> 1000 µM (inactive)	> 100 µM (inactive)	> 1000 µM (inactive)	> 100	> 1000 µM (inactive)		> 100 µM (inactive)		> 100 µM (inactive)	> 100 µM (inactive)	> 100 µM (inactive)	> 100 µM (inactive)	> 100 µM (inactive)	> 100 µM (inactive)	> 1000 µM (inactive)	> 100 µM (inactive)	> 1000 µM (inactive)	> 100 µM (inactive)	> 1000 µM (inactive)	
O=C1c2ccccc2C(=O)N1CC(CN1C(=O)c2ccccc2C1=O)(C(=O)OCc1ccccc1)C(=O)OCc1ccccc1	> 100 µM (inactive)	> 100 µM (inactive)	> 100 µM (inactive)	> 100	> 100 µM (inactive)	> 100 µM (inactive)	> 100 µM (inactive)	> 100 µM (inactive)	> 100 µM (inactive)	> 100 µM (inactive)		> 100 µM (inactive)	> 100 µM (inactive)	> 100 µM (inactive)	> 100 µM (inactive)	> 100 µM (inactive)	> 100 µM (inactive)		> 100 µM (inactive)	
COc1cc(S(=O)(=O)Nc2ccc(-c3csc(N4C(=O)C(Cl)C4c4cccs4)n3)cc2)ccc1Cl (stereo unspecified)	54.6 µM (inactive)	> 100 µM (inactive)	72.9 µM (inactive)	> 100	65 µM (inactive)		98.9 µM (inactive)	> 100 µM (inactive)	31.7 µM (inactive)	4.35 µM (inactive)	31.8 µM (inactive)	> 100 µM (inactive)	18.2 µM (inactive)	22.2 µM (inactive)		> 100 µM (inactive)	> 100 µM (inactive)	> 100 µM (inactive)	> 100 µM (inactive)	32.8 µM (inactive)
O=C(O)CCC(=O)OC1N=C(c2ccccc2Cl)c2cc([N+](=O)[O-])ccc2NC1=O (stereo unspecified)	81.3 µM (inactive)	> 100 µM (inactive)	> 100 µM (inactive)	36.7	> 100 µM (inactive)	31.5 µM (inactive)	20.5 µM (inactive)	> 100 µM (inactive)		55.1 µM (inactive)		60.1 µM (inactive)	95.9 µM (inactive)	> 100 µM (inactive)	> 100 µM (inactive)	> 100 µM (inactive)	> 100 µM (inactive)	> 100 µM (inactive)	> 100 µM (inactive)	
NC(=O)Nc1ccc(C(=O)NCCCNC(=O)c2ccc(NC(N)=O)cc2)cc1	> 100 µM (inactive)	> 100 µM (inactive)	> 100 µM (inactive)	> 100	> 100 µM (inactive)	> 100 µM (inactive)	> 100 µM (inactive)		> 100 µM (inactive)	> 100 µM (inactive)	> 100 µM (inactive)	> 100 µM (inactive)	> 100 µM (inactive)	> 100 µM (inactive)		> 100 µM (inactive)	> 100 µM (inactive)	> 100 µM (inactive)	> 100 µM (inactive)	> 100 µM (inactive)
C[N+]1(C)CC=C(N2CCOCC2)CC1	> 10 µM (inactive)		> 10 µM (inactive)	> 10	> 10 µM (inactive)	> 10 µM (inactive)	> 10 µM (inactive)	> 10 µM (inactive)	> 10 µM (inactive)	> 10 µM (inactive)	> 10 µM (inactive)	> 10 µM (inactive)	> 10 µM (inactive)	> 10 µM (inactive)	> 10 µM (inactive)	> 10 µM (inactive)	> 10 µM (inactive)	> 10 µM (inactive)	> 10 µM (inactive)	> 10 µM (inactive)
CC1(C)OCC([C@H]2O[C@@H](CC(=S)NCCCCCCCCCCCCNC(=S)C[C@H]3O[C@@H](C4COC(C)(C)O4)[C@H]4OC(C)(C)O[C@H]43)[C@H]3OC(C)(C)O[C@H]32)O1 (stereo partly specified)	19.2 µM (inactive)	> 100 µM (inactive)	70.8 µM (inactive)	73.1	58.5 µM (inactive)	35 µM (inactive)	35.7 µM (inactive)	31.6 µM (inactive)		45.3 µM (inactive)	39.4 µM (inactive)	> 100 µM (inactive)	> 100 µM (inactive)		> 100 µM (inactive)	45.7 µM (inactive)	> 100 µM (inactive)	14.7 µM (inactive)	52.5 µM (inactive)	57.9 µM (inactive)
N#CC(Cc1ccccc1)N(CCC1=CCCCC1)C(c1ccccc1)c1ccccc1 (stereo unspecified)	42.3 µM (inactive)	95.7 µM (inactive)	41.1 µM (inactive)	42.9	24.4 µM (inactive)	69.5 µM (inactive)	15.8 µM (inactive)	> 100 µM (inactive)	35.2 µM (inactive)	15.2 µM (inactive)	80.4 µM (inactive)	77.3 µM (inactive)	> 100 µM (inactive)	> 100 µM (inactive)	> 100 µM (inactive)	12.8 µM (inactive)	> 100 µM (inactive)	70.3 µM (inactive)	18.8 µM (inactive)	
CC(=O)OC1CCn2c1nc1cc([N+](=O)[O-])c(C)cc12 (stereo unspecified)	> 100 µM (inactive)		> 100 µM (inactive)	> 100	> 100 µM (inactive)	> 100 µM (inactive)	> 100 µM (inactive)	> 100 µM (inactive)	> 100 µM (inactive)	> 100 µM (inactive)	> 100 µM (inactive)	> 100 µM (inactive)	> 100 µM (inactive)	> 100 µM (inactive)	> 100 µM (inactive)	> 100 µM (inactive)	> 100 µM (inactive)	> 100 µM (inactive)	> 100 µM (inactive)	> 100 µM (inactive)
N=C1N(/N=C/c2ccccn2)/C(=N\c2ccccc2)C(=S)N1c1ccccc1	5.5 µM (inactive)	4.74 µM (inactive)	5.41 µM (inactive)	2.54	3.56 µM (inactive)	8.18 µM (inactive)	2.87 µM (inactive)	5.81 µM (inactive)	1.42 µM (inactive)	1.92 µM (inactive)	3.33 µM (inactive)	11 µM (inactive)	5.05 µM (inactive)	1.17 µM (inactive)	6.7 µM (inactive)	2.97 µM (inactive)	3.31 µM (inactive)	5.51 µM (inactive)		3.77 µM (inactive)
Cc1nc(C)c(N2CCN(CN)CC2)c(O)n1	> 100 µM (inactive)		> 100 µM (inactive)	> 100	> 100 µM (inactive)	56.8 µM (inactive)	> 100 µM (inactive)	> 100 µM (inactive)	> 100 µM (inactive)	> 100 µM (inactive)	> 100 µM (inactive)	> 100 µM (inactive)	> 100 µM (inactive)	> 100 µM (inactive)	> 100 µM (inactive)	> 100 µM (inactive)	> 100 µM (inactive)	> 100 µM (inactive)	> 100 µM (inactive)	> 100 µM (inactive)
Cc1nc(N)c(N2CCN(Cc3ccccc3)CC2)c(O)n1	> 100 µM (inactive)	> 100 µM (inactive)	> 100 µM (inactive)	> 100	> 100 µM (inactive)	> 100 µM (inactive)	> 100 µM (inactive)	> 100 µM (inactive)	> 100 µM (inactive)	> 100 µM (inactive)	> 100 µM (inactive)	> 100 µM (inactive)			> 100 µM (inactive)	> 100 µM (inactive)	> 100 µM (inactive)	> 100 µM (inactive)	> 100 µM (inactive)	> 100 µM (inactive)
CCCCCCCCCCC[N+]1(Cc2ccccc2)CC2CCN(Cc3ccccc3)CC2C1 (stereo unspecified)	0.166 µM (active)	1.55 µM (inactive)		1.52	0.233 µM (active)	0.261 µM (active)	0.284 µM (active)	1.09 µM (active)	1.01 µM (active)	0.106 µM (active)	0.125 µM (active)	0.665 µM (active)	0.429 µM (active)			0.377 µM (active)	0.47 µM (active)	1.2 µM (inactive)	0.383 µM (active)	1.15 µM (inactive)
CSc1nc(Cl)c(Br)c(Nc2cnc(O)nc2O)n1	13.8 µM (inactive)		27.5 µM (inactive)	7.41	23 µM (inactive)	20.2 µM (inactive)	14.6 µM (inactive)	18.9 µM (inactive)	16.8 µM (inactive)	1.87 µM (inactive)	26.9 µM (inactive)	29.5 µM (inactive)	6.34 µM (inactive)	15.2 µM (inactive)	13.6 µM (inactive)	15.8 µM (inactive)	15.6 µM (inactive)	19.2 µM (inactive)	27.9 µM (inactive)	20.1 µM (inactive)
